Assay results: patent US20210330756A1, “Acetylation of Miro1” (University of South Carolina, priority 2020, published 2021)

Tests used:
[1] = test system: Ac-histone H4; test: Immunoblotting for Ac-histone H4 in adult DRG neurons (HDAC specificity); assay type: cell-based, rat
Description: We tested for this specificity in the adult DRG neurons from above by immunoblotting. […] (A) Number of mitochondria in growth cones after exposing DRG cultures to 10 μM TubA versus vehicle (control) for 1 h is shown as average fold-change in number of mitochondria per growth cone±SEM (n=13 axons across three culture preparations; *, P≤0.05 by one-way ANOVA with Bonferroni post hoc analysis). (B) Representative EMs of Remak bundles (arrowheads) in naive Sciatic nerve and nerves after 2 h vehicle (DMSO) or TubA injection are shown. Arrows indicate mitochondria in the unmyelinated axons. Note that a Schwann cell nucleus (asterisk) is seen in the Remak bundle for DMSO image but not the other two micrographs (scale bar=3 μm). (C) Quantification of number of mitochondria per unmyelinated axon from EM images as in B is shown as average±SEM (n≥5; *****, P≤0.0001 by one-way ANOVA with Bonferroni post hoc analysis). (D-F) Quantification for indicated parameters for mitochondrial transport in sciatic nerve in vivo using tetramethylrhodamine, ethyl ester, perchlorate to visualize mitochondria is shown.
For immunoblotting, protein lysates or immunoprecipitates were denatured by boiling in Laemmli sample buffer, fractionated by SDS-PAGE, and transferred to nitrocellulose membranes. Blots were blocked for 1 h at room temperature with 5% nonfat dry milk in TBS with 0.1% Tween 20 (TBST). Primary antibodies diluted in 5% BSA in TBST were added to the membranes and incubated overnight at 4° C. with rocking. Primary antibodies consisted of rabbit anti-Myc (1:2,000; Cell Signaling; 71D10), rabbit anti-RHOT1 antibody (1:1,000; Aviva Systems Biology; ARP44817 P050), rabbit anti-HDAC6 antibody (1:2,000; Cell Signaling; 7558), rabbit anti-ERK1 (1:5,000; Abcam; ab32537), and affinity-purified custom rabbit anti-Miro1-AcK105 (1:2,500; Twiss laboratory, see above) antibodies. For the anti-Miro1-AcK105 antibody, preimmune and test-bleed sera were used at 1:1,000 dilutions to initially evaluate for specificity. After washing in TBST, blots were incubated with HRP-conjugated anti-rabbit IgG antibodies (1:5,000; Jackson Immunoresearch) diluted in blocking buffer for 1 h at room temperature. Signals were detected using ECL Prime (GE Healthcare) after extensive washing.

[2] = test system: sciatic nerve unmyelinated axons; test: EM count of mitochondria in unmyelinated sciatic nerve axons after nerve injection; assay type: in vivo, rat; conditions: 2 μl of 1.5 mM, EM 2 h after injection, vs vehicle
Description: To determine if TubA might also affect axonal mitochondria in vivo, we directly injected TubA into the sciatic nerve of adult rats at mid-thigh. […] As this could reflect stalling of mitochondria or increased numbers of anterogradely and/or retrogradely moving mitochondria, we performed in vivo imaging to visualize mitochondrial dynamics.
For in vivo inhibition of HDAC6, the sciatic nerve of anesthetized adult rats was injected twice at mid-thigh level with 2 μl of 1.5 mM TubA on the right and 2 μl of DMSO (vehicle control) on the left (isofluorane inhalation was used for anesthesia). Nerve injection sites were separated by 2 mm. […]
Vesicle trafficking was quantified using differential ImageJ Difference Tracker Plug-in (Andrews et al., 2010). 50-80-μm long unbranched axon segments at approximately the mid-region between growth cone and cell body were analyzed. […] The distance between the growth tip at end of the post-CALI sequence and the pre-CALI baseline was measured using LAS-X software. Movement of ≥0.5 μm toward the axon shaft was counted as retracted. Fluorescence emission of the Mito-KR post-CALI was analyzed using ImageJ. […] For axon shaft FRAP analyses, each 50-μm bleached ROI was divided into […], and the fluorescence intensity recovery was measured as described above. […] A minimum of 75 unmyelinated axons was analyzed for each nerve. […]

Structure (SMILES): CN1CCc2c(c3ccccc3n2Cc2ccc(C(=O)NO)cc2)C1 [TubA, tubastatin]
- Ac-histone H4 levels ([1]; 1 μM): no change in Ac-histone H4 levels
- Ac-histone H4 levels ([1]; 10 μM): no change in Ac-histone H4 levels
- Ac-histone H4 levels ([1]; 100 μM): only modest increase in Ac-histone H4
- mitochondrial numbers in unmyelinated axons [2]: significantly increased mitochondrial numbers
